The numbers were not newly measured in patent US5969096A (priority 1998, dated 1999), which cites them from elsewhere.

The target of the data set is neuronal voltage-sensitive Ca2+ channels.

In the case of ω-conotoxin GVIA, the “affinity (Kd) for high-affinity targets” value is reported as “sub-picomolar” and the “time for 50% of the peptide to dissociate” value is listed as “more than 7 hours”.
